The subject of one data set is CHIKV-NLuc. The format is cell-based, Chikungunya virus. To be noted: CHIKV-NLuc MOI 0.1, 16 h, NLuc activity. How it is done: Measurement of the activity of the virus-encoded NanoLuciferase (NLuc) reporter was used to evaluate the antiviral activity of the peptides against CHIKV-NLuc at the end of every assay with the peptides. Cells were infected with CHIKV-NLuc, and the supernatant was aspirated 16 h post-infection (h.p.i.), and each well of the plate was washed with PBS solution. Then, 30 µL of Renilla Luciferase Assay Lysis Buffer (Promega, Madison, WI, USA) was added to the cells. After 30 min, 50 μL of substrate for Renilla Luciferase (Renilla Luciferase assay reagent, Promega, Madison, WI, USA) was automatically injected in the wells into the plate reader (FLUOstar Omega/BMG LABTECH, Ortenberg, Germany), and the light intensity reading was performed. The values obtained are shown as the percentage of protein NLuc activity in the control (samples treated with sterile water).
The effects of the peptides on the CHIKV infectious cycle were analyzed as previously described. BHK-21 and Huh-7 cells (1 × 10^4 per well) were seeded in 96-well white culture plates (Greiner Bio-One, Americana, SP, Brazil) for 24 h. Then, the virus at an MOI of 0.1 and the peptides at the MNTC were simultaneously added to the cells. The plate was incubated at 37 °C for 16 h, and then antiviral activity against CHIKV was evaluated through NLuc activity. […] The SI was calculated using the ratio CC50/EC50.
(§1) All the described experiments were performed in three independent events, each of which was carried out in three (cytotoxicity) and four (antiviral activity) technical replicates. The CC50 and EC50 values were determined by nonlinear regression of the dose-response curves (Log [peptide] × response). The statistical significance was determined employing the paired Student’s t-test for parametric results and the Mann–Whitney test for nonparametric data using GraphPad Prism 5.0 software (GraphPad Software, San Diego, CA, USA). A p-value < 0.05 was considered statistically significant.

Data set [1] can be described thus: MTT cytotoxicity assay in Huh-7 cells. The format is cell-based. The settings on record: human. How it is done:
(§2) Cytotoxicity in BHK-21 and Huh-7 cells was evaluated using the 3-(4,5-dimethylthiazol-2-yl)-2,5-diphenyltetrazolium bromide (MTT) assay as previously described. The cells (5 × 10^3 per well) were seeded in 96-well culture plates (TPP, Trasadingen, Switzerland). After 24 h, the cells were incubated with the peptides at concentrations of 1.6, 3.1, 6.3, 12.5, 25, 50, and 100 µM for 24 h. Then, the medium containing the peptides was removed, and 100 µL of MTT (Sigma-Aldrich, St. Louis, MO, USA) diluted in DMEM (Cultilab, Campinas, SP, Brazil) (1 mg/mL) was added to each well of the plate (1 mg/mL). After 30 min of incubation at 37 °C, the medium containing MTT (Sigma-Aldrich, St. Louis, MO, USA) was removed, and 100 µL of dimethylsulfoxide (DMSO, Synth, Diadema, SP, Brazil) was added to the cells. The plate was agitated at 200 rpm. After 5 min, the absorbance was measured at a wavelength of 572 nm on a plate reader (FLUOstar Omega/BMG LABTECH, Ortenberg, Germany). The CC50 values were calculated using GraphPad Prism 5.0 software (GraphPad Software, San Diego, CA, USA).
as §1
(In general: Tetrazolium dyes change colour on reduction, which living cells bring about.)

The nature of data set [2]: MTT cytotoxicity assay in BHK-21 cells. It counts as cell-based. To be noted: hamster. How it is done: as §2, §1
Another data set deals with BHK-21 and Huh-7 cells. The experiment in a line: MTT cytotoxicity, maximum nontoxic concentration over both cell lines. The format is cell-based, hamster; human. How it is done:
The cytotoxicity of the peptides GA-Hecate, PSSct1905, and PSSct1910 was evaluated in baby hamster kidney fibroblast cells (BHK-21) and human hepatocarcinoma epithelial cells (Huh-7). We defined the maximum nontoxic concentration (MNTC), expressed in µM, as the highest peptide concentration that kept at least 80% of BHK-21 and Huh-7 cells viable within 24 h.
as §2, with “The plate was agitated at 200 rpm.” left out

Each structure is given as a SMILES string. Where two headings read alike, the source gives them in different places. Peptide text beside a SMILES is read from it. * marks the point of attachment. Galloyl = O=C(c1cc(O)c(O)c(O)c1)*; X1 = CN(C)c1ccc(C(=O)*)cc1

Regarding `CC(C)C[C@H](NC(=O)[C@H](C)NC(=O)[C@H](CCCCN)NC(=O)[C@H](CCCCN)NC(=O)[C@H](CC(C)C)NC(=O)[C@H](C)NC(=O)[C@H](CCCCN)NC(=O)[C@H](CCCCN)NC(=O)[C@H](CC(C)C)NC(=O)[C@H](CCCCN)NC(=O)[C@H](CCCCN)NC(=O)[C@H](CC(C)C)NC(=O)[C@H](C)NC(=O)[C@H](CCCCN)NC(=O)[C@H](CCCCN)NC(=O)[C@H](CC(C)C)NC(=O)[C@H](C)NC(=O)[C@H](CCCCN)NC(=O)[C@H](CC(C)C)NC(=O)[C@H](C)NC(=O)[C@H](CC(C)C)NC(=O)[C@H](C)NC(=O)[C@H](Cc1ccccc1)NC(=O)c1cc(O)c(O)c(O)c1)C(N)=O` [GA-Hecate] (Galloyl-FALALKALKKALKKLKKALKKAL-NH2), the concentration for a half-maximal effect (EC50) in the data set on CHIKV-NLuc (BHK-21 cells) was found to be 5.7 µM; in the data set on CHIKV-NLuc (Huh-7 cells), 4.5 µM. In addition, the cytotoxic concentration (CC50) at 24 h in data set [1] amounted to 221 µM; in data set [2], 23.3 µM.

`CC(C)C[C@H](NC(=O)[C@H](CCCCN)NC(=O)[C@H](CCCCN)NC(=O)[C@H](CC(C)C)NC(=O)[C@H](C)NC(=O)[C@H](CCCCN)NC(=O)[C@H](CCCCN)NC(=O)[C@H](CC(C)C)NC(=O)[C@H](C)NC(=O)[C@H](CCCCN)NC(=O)[C@H](CC(C)C)NC(=O)[C@H](C)NC(=O)[C@H](CC(C)C)NC(=O)[C@H](C)NC(=O)[C@H](Cc1ccccc1)NC(=O)c1cc(O)c(O)c(O)c1)C(=O)O` [PSSct1905, GA-FALALKALKKALKKL-COOH] (Galloyl-FALALKALKKALKKL-OH): the 50% effective concentration (EC50) is 8.4 µM with CHIKV-NLuc (BHK-21 cells) and 7.1 µM with CHIKV-NLuc (Huh-7 cells). For the same compound, the CC50 at 24 h in data set [1] is 205 µM; in data set [2], 56.5 µM. Also, in the data set on BHK-21 and Huh-7 cells (more prominent in BHK-21 cells), the “increase in the CC50 value compared to GA-Hecate” value is “approximately 2 fold”.

As to `CC(C)C[C@H](NC(=O)[C@H](C)NC(=O)[C@H](CCCCN)NC(=O)[C@H](CCCCN)NC(=O)[C@H](CC(C)C)NC(=O)[C@H](C)NC(=O)[C@H](CCCCN)NC(=O)[C@H](CCCCN)NC(=O)[C@H](CC(C)C)NC(=O)[C@H](CCCCN)NC(=O)[C@H](CCCCN)NC(=O)[C@H](CC(C)C)NC(=O)[C@H](C)NC(=O)[C@H](CCCCN)NC(=O)[C@H](CCCCN)NC(=O)[C@H](CC(C)C)NC(=O)[C@H](C)NC(=O)[C@H](CCCCN)NC(=O)[C@H](CC(C)C)NC(=O)[C@H](C)NC(=O)[C@H](CC(C)C)NC(=O)[C@H](C)NC(=O)[C@H](Cc1ccccc1)NC(=O)c1ccc(N(C)C)cc1)C(N)=O` [PSSct1910] (X1-FALALKALKKALKKLKKALKKAL-NH2), the EC50 in the data set on CHIKV-NLuc (BHK-21 cells) was found to be 1.1 µM; in the data set on CHIKV-NLuc (Huh-7 cells), 0.2 µM. The CC50 at 24 h in data set [1] is 7.7 µM; in data set [2], 5.4 µM. Besides, in the data set with BHK-21 and Huh-7 cells (highest concentration keeping at least 80% of BHK-21 and Huh-7 cells viable within 24 h, MTT), the “MNTC (maximum nontoxic concentration)” value is 1.6 µM.

One may read the EC50 as the concentration that produces a half-maximal response. Read a high EC50 as weaker potency. Usually CC50 stands for the concentration that lowers cell viability or growth by half. Lower therefore signals greater toxicity to the cells.

Source of the values: publication PMC10610090, “The Synthetic Peptide GA-Hecate and Its Analogs Inhibit Multiple Steps of the Chikungunya Virus Infection Cycle In Vitro” (Pharmaceuticals, 2023).
